This assay concerns L1210 leukemia ip in BDF1 mice, survival T/C. Briefly: NCI In Vivo Anticancer Drug Screen. Data for tumor model L1210 Leukemia (intraperitoneal) in B6D2F1 (BDF1) mice. Particulars: higher = longer survival. The method, boiled down:
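Survival endpoint. Drug-treated group vs vehicle group, expressed as T divided by C. Tumor passaged by transplantation.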

“And” between values parts separate entries of the source, which are not always exact repeats. Equal values may be shown once. Inconclusive results and toxic doses are left out.

For `CNNCc1ccc(C(=O)NC(C)C)cc1`, the T/C is, setting by setting: (endpoint: mean survival time, dose: 6.5 mg/kg/injection, schedule: Q01DX009 (ip), vehicle: saline) 110 % of control and 112 % of control; (endpoint: mean survival time, dose: 8.0 mg/kg/injection, schedule: Q01DX009 (ip), vehicle: saline) 121 % of control; (endpoint: mean survival time, dose: 12.0 mg/kg/injection, schedule: Q04DX002 (ip), vehicle: saline) 93 % of control and 91 % of control; (endpoint: mean survival time, dose: 13.0 mg/kg/injection, schedule: Q01DX Z (ip), vehicle: saline) 117 % of control; (endpoint: mean survival time, dose: 16.0 mg/kg/injection, schedule: Q01DX009 (oral), vehicle: saline) 116 % of control; (endpoint: mean survival time, dose: 16.0 mg/kg/injection, schedule: Q03HX008 (ip), vehicle: saline) 106 % of control. Also, the T/C by setting is: (endpoint: mean survival time, dose: 16.0 mg/kg/injection, schedule: Q03HX016 (ip), vehicle: saline) 112 % of control; (endpoint: mean survival time, dose: 16.0 mg/kg/injection, schedule: Q03HX016 (oral), vehicle: saline) 106 % of control; (endpoint: mean survival time, dose: 19.0 mg/kg/injection, schedule: Q01DX Z (ip), vehicle: saline) 117 % of control; (endpoint: mean survival time, dose: 24.0 mg/kg/injection, schedule: Q04DX002 (ip), vehicle: saline) 97 % of control; (endpoint: mean survival time, dose: 25.0 mg/kg/injection, schedule: Q01DX009 (ip), vehicle: saline) 110 % of control and 117 % of control; (endpoint: mean survival time, dose: 25.0 mg/kg/injection, schedule: Q#A X020 (ip), vehicle: saline) 151 % of control. The T/C is, setting by setting: (endpoint: mean survival time, dose: 32.0 mg/kg/injection, schedule: Q03HX008 (ip), vehicle: saline) 112 % of control; (endpoint: mean survival time, dose: 32.0 mg/kg/injection, schedule: Q03HX016 (ip), vehicle: saline) 117 % of control; (endpoint: mean survival time, dose: 37.5 mg/kg/injection, schedule: Q01DX009 (ip), vehicle: saline) 120 % of control and 123 % of control; (endpoint: mean survival time, dose: 50.0 mg/kg/injection, schedule: Q#A X020 (ip), vehicle: saline) 157 % of control; (endpoint: mean survival time, dose: 62.0 mg/kg/injection, schedule: Q01DX009 (ip), vehicle: saline) 155 % of control; (endpoint: mean survival time, dose: 64.0 mg/kg/injection, schedule: Q03HX008 (ip), vehicle: saline) 110 % of control. In addition, the T/C is, setting by setting: (endpoint: mean survival time, dose: 64.0 mg/kg/injection, schedule: Q03HX024 (ip), vehicle: saline) 157 % of control; (endpoint: mean survival time, dose: 100.0 mg/kg/injection, schedule: Q01DX010 (ip), vehicle: saline) 151 % of control; (endpoint: mean survival time, dose: 100.0 mg/kg/injection, schedule: Q01DX010 (oral), vehicle: saline) 159 % of control; (endpoint: mean survival time, dose: 125.0 mg/kg/injection, schedule: Q01DX009 (ip), vehicle: clinical formulation) 158 % of control; (endpoint: mean survival time, dose: 125.0 mg/kg/injection, schedule: Q01DX009 (ip), vehicle: saline) 167 % of control; (endpoint: mean survival time, dose: 128.0 mg/kg/injection, schedule: Q01DX001 (ip), vehicle: saline) 109 % of control. In addition, the T/C (endpoint: mean survival time, dose: 128.0 mg/kg/injection, schedule: Q01DX001 (iv), vehicle: saline) is 104 % of control; the T/C (endpoint: mean survival time, dose: 128.0 mg/kg/injection, schedule: Q01DX001 (oral), vehicle: saline) is 106 % of control; the T/C (endpoint: mean survival time, dose: 128.0 mg/kg/injection, schedule: Q01DX009 (oral), vehicle: saline) was 155 % of control and 164 % of control; the T/C (endpoint: mean survival time, dose: 128.0 mg/kg/injection, schedule: Q03HX008 (ip), vehicle: saline) was 121 % of control; the T/C (endpoint: mean survival time, dose: 128.0 mg/kg/injection, schedule: Q04DX003 (ip), vehicle: saline) is 121 % of control; the T/C (endpoint: mean survival time, dose: 128.0 mg/kg/injection, schedule: Q08DX002 (oral), vehicle: saline) is 106 % of control. The T/C is 150 % of control (endpoint: mean survival time, dose: 133.0 mg/kg/injection, schedule: Q01DX009 (ip), vehicle: saline); 159 % of control (endpoint: mean survival time, dose: 150.0 mg/kg/injection, schedule: Q01DX009 (ip), vehicle: saline); 112 % of control and 121 % of control (endpoint: mean survival time, dose: 250.0 mg/kg/injection, schedule: Q01DX001 (ip), vehicle: saline); 184 % of control (endpoint: mean survival time, dose: 250.0 mg/kg/injection, schedule: Q01DX009 (ip), vehicle: clinical formulation); 188 % of control (endpoint: mean survival time, dose: 250.0 mg/kg/injection, schedule: Q01DX009 (ip), vehicle: water); 99 % of control (endpoint: mean survival time, dose: 256.0 mg/kg/injection, schedule: Q01DX001 (iv), vehicle: saline). Moreover, the T/C is 110 % of control (endpoint: mean survival time, dose: 256.0 mg/kg/injection, schedule: Q01DX001 (oral), vehicle: saline); 104 % of control (endpoint: mean survival time, dose: 256.0 mg/kg/injection, schedule: Q08DX002 (ip), vehicle: saline); 166 % of control (endpoint: mean survival time, dose: 300.0 mg/kg/injection, schedule: Q01DX009 (ip), vehicle: saline); 117 % of control (endpoint: mean survival time, dose: 320.0 mg/kg/injection, schedule: Q01DX010 (oral), vehicle: saline); 86 % of control (endpoint: mean survival time, dose: 400.0 mg/kg/injection, schedule: Q01DX010 (im), vehicle: saline); 116 % of control (endpoint: mean survival time, dose: 400.0 mg/kg/injection, schedule: Q01DX010 (oral), vehicle: saline). In addition, the T/C by setting is: (endpoint: mean survival time, dose: 400.0 mg/kg/injection, schedule: Q01DX010 (sc), vehicle: saline) 90 % of control; (endpoint: mean survival time, dose: 512.0 mg/kg/injection, schedule: Q04DX003 (ip), vehicle: saline) 155 % of control; (endpoint: mean survival time, dose: 512.0 mg/kg/injection, schedule: Q04DX003 (oral), vehicle: saline) 151 % of control; (endpoint: mean survival time, dose: 758.0 mg/kg/injection, schedule: Q04DX002 (ip), vehicle: saline) 103 % of control; (endpoint: median survival time, dose: 300.0 mg/kg/injection, schedule: Q01DX009 (ip), vehicle: saline) 166 % of control and 170 % of control; (endpoint: median survival time, dose: 500.0 mg/kg/injection, schedule: Q01DX009 (ip), vehicle: saline) 49 % of control and 54 % of control.

Take `Cc1cc(C(c2ccccc2)c2ccccc2)cc(C)c1OCc1ccccc1`: the T/C is 93 % of control (endpoint: mean survival time, dose: 50.0 mg/kg/injection, schedule: Q01DX001 (ip), vehicle: Klucel (hydroxypropylcellulose) (HPC)); 93 % of control (endpoint: mean survival time, dose: 100.0 mg/kg/injection, schedule: Q01DX001 (ip), vehicle: Klucel (hydroxypropylcellulose) (HPC)); 90 % of control (endpoint: mean survival time, dose: 200.0 mg/kg/injection, schedule: Q01DX001 (ip), vehicle: Klucel (hydroxypropylcellulose) (HPC)).

As for `CC(N)CCCO` (configuration not stated), the T/C was 103 % of control (endpoint: mean survival time, dose: 5.0 mg/kg/injection, schedule: Q01DX001 (ip), vehicle: saline); 97 % of control (endpoint: mean survival time, dose: 10.0 mg/kg/injection, schedule: Q01DX001 (ip), vehicle: saline); 103 % of control (endpoint: mean survival time, dose: 20.0 mg/kg/injection, schedule: Q01DX001 (ip), vehicle: saline); 101 % of control (endpoint: mean survival time, dose: 40.0 mg/kg/injection, schedule: Q01DX001 (ip), vehicle: saline); 103 % of control (endpoint: mean survival time, dose: 80.0 mg/kg/injection, schedule: Q01DX001 (ip), vehicle: saline).

For the compound `CC(C)=NNC(=O)CNc1cccc(C(F)(F)F)c1`, the T/C by setting is: (endpoint: mean survival time, dose: 100.0 mg/kg/injection, schedule: Q04DX002 (ip), vehicle: Klucel (hydroxypropylcellulose) (HPC)) 107 % of control; (endpoint: mean survival time, dose: 200.0 mg/kg/injection, schedule: Q04DX002 (ip), vehicle: Klucel (hydroxypropylcellulose) (HPC)) 110 % of control; (endpoint: mean survival time, dose: 400.0 mg/kg/injection, schedule: Q04DX002 (ip), vehicle: Klucel (hydroxypropylcellulose) (HPC)) 100 % of control.

With `Oc1ccc(Br)cc1/C=N\NC(=S)Nc1ccc2cn[nH]c2c1`, the T/C reads like this: (endpoint: mean survival time, dose: 25.0 mg/kg/injection, schedule: Q01DX001 (ip), vehicle: carboxymethylcellulose (CMC)) 90 % of control; (endpoint: mean survival time, dose: 50.0 mg/kg/injection, schedule: Q01DX001 (ip), vehicle: carboxymethylcellulose (CMC)) 101 % of control; (endpoint: mean survival time, dose: 100.0 mg/kg/injection, schedule: Q01DX001 (ip), vehicle: carboxymethylcellulose (CMC)) 93 % of control; (endpoint: mean survival time, dose: 200.0 mg/kg/injection, schedule: Q01DX001 (ip), vehicle: carboxymethylcellulose (CMC)) 86 % of control; (endpoint: mean survival time, dose: 400.0 mg/kg/injection, schedule: Q01DX001 (ip), vehicle: carboxymethylcellulose (CMC)) 107 % of control.

`O=S1c2ccccc2S(=O)c2ccccc21` (configuration not stated): the T/C by setting is: (endpoint: mean survival time, dose: 100.0 mg/kg/injection, schedule: Q04DX003 (ip), vehicle: saline with Tween-80) 96 % of control; (endpoint: mean survival time, dose: 200.0 mg/kg/injection, schedule: Q04DX003 (ip), vehicle: saline with Tween-80) 91 % of control; (endpoint: mean survival time, dose: 400.0 mg/kg/injection, schedule: Q04DX003 (ip), vehicle: saline with Tween-80) 89 % of control.

The values are drawn from PubChem BioAssay AID248 (DTP/NCI, 2004).
